These results are taken from PubChem BioAssay (NCI).

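48-hour exposure; five concentrations; linearly interpolated endpoints. Here, GI50 denotes the concentration required for 50% inhibition of growth. TGI is the concentration that stops growth completely.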 Where only a bound is given, the exact number is not on record here.

Some test systems named below: MDA-MB-435; DU-145 prostate; BT-549 breast; HS 578T breast.
Holding throughout (experiment): NCI anticancer screen, dose series, 48 h

For `O=C(Nc1ccc(Cl)cc1)c1cc(-c2ccc(F)cc2)c2sc(=O)[nH]c2n1`, the GI50 in the assay with MDA-MB-435 was 3.01 µM; in the assay on DU-145 prostate, 3.7 µM; with BT-549 breast, 1.73 µM; with HS 578T breast it was 2.13 µM. In addition, the TGI in the assay on MDA-MB-435 stood at 17.4 µM; in the assay on DU-145 prostate it was 28.9 µM; in the assay with BT-549 breast it was 6.88 µM; in the assay on HS 578T breast, 13.1 µM.

On to `CCN(CC)c1sc(N(CC)CC)c2c1SSSSS2`, for which the GI50 was 0.844 µM with MDA-MB-435, 1.8 µM in the assay on DU-145 prostate, 2.06 µM with BT-549 breast and 2.75 µM in the assay on HS 578T breast. Besides, the TGI amounted to 2.09 µM in the assay with MDA-MB-435, 3.37 µM in the assay on DU-145 prostate, 4.8 µM with BT-549 breast and 23.2 µM with HS 578T breast.

With `Cc1cc(SCC(=O)c2ccccc2)nc2ccccc12`, the TGI was greater than 100 µM in the assay on MDA-MB-435, greater than 100 µM with DU-145 prostate, greater than 100 µM in the assay on BT-549 breast and 64.8 µM in the assay with HS 578T breast.

Take `COc1ccc(C(=O)COc2cccc(/C=C3\COc4ccc5ccccc5c4C3=O)c2)cc1`: the GI50 in the assay with MDA-MB-435 is 4.08 µM; in the assay with DU-145 prostate, 4.25 µM; with BT-549 breast, 8.44 µM; with HS 578T breast it was 4.93 µM. For the same compound, the TGI in the assay on MDA-MB-435 was 41.3 µM; with DU-145 prostate it was greater than 100 µM; in the assay on BT-549 breast, greater than 100 µM; in the assay with HS 578T breast, greater than 100 µM.

`COc1cc(NC(=O)c2cc(O)c(CC=C(C)C)c(O)c2)cc2c1O[C@]1(C)CC[C@@H](O)C(C)(C)[C@H]1C2`: the GI50 in the assay on MDA-MB-435 is 3.73 µM; in the assay on DU-145 prostate, 7.49 µM; with BT-549 breast, 0.819 µM; in the assay on HS 578T breast it was 0.456 µM. For the same compound, the TGI is 23.7 µM with MDA-MB-435, 20.5 µM in the assay on DU-145 prostate, 13.5 µM with BT-549 breast and 15.5 µM with HS 578T breast.

On to `O=C(CCl)Nc1ccc(Cl)cc1`, for which the GI50 with MDA-MB-435 is 4.4 µM; with DU-145 prostate, 4.92 µM; in the assay with BT-549 breast it was 2.78 µM; in the assay on HS 578T breast, 3.96 µM. Also, the TGI in the assay on MDA-MB-435 came out at 20.4 µM; in the assay with DU-145 prostate, 17.4 µM; in the assay with BT-549 breast, 9.92 µM; in the assay on HS 578T breast, 42.4 µM.

Take `COC(=O)Nc1nc2ccc(Oc3ccc(NC(=O)Nc4ccccc4)cc3)cc2[nH]1`: the GI50 in the assay with MDA-MB-435 was 0.0474 µM; in the assay with DU-145 prostate, 0.254 µM; with BT-549 breast, 1.61 µM; with HS 578T breast, 0.0921 µM. For the same compound, the TGI in the assay with MDA-MB-435 is 0.12 µM; with DU-145 prostate, 3.1 µM; in the assay on BT-549 breast it was 11.8 µM; in the assay on HS 578T breast it was 4.45 µM.

For the compound `CC/C=C\C[C@@H]1C/C=C2/C(=O)C=C[C@H]2C/C=C\CCCC(=O)O1`, the GI50 in the assay with MDA-MB-435 was 0.25 µM; with DU-145 prostate, 0.362 µM; in the assay with BT-549 breast, 0.89 µM; with HS 578T breast, 2.84 µM. Also, the TGI in the assay with MDA-MB-435 was 0.845 µM; in the assay on DU-145 prostate it was 1.28 µM; in the assay with BT-549 breast it was 2.23 µM; in the assay on HS 578T breast, 9.11 µM.

Regarding `CCN(CC)CCCC(C)Nc1c(C)cnc2cc(Cl)c(C)cc12` (stereo unspecified), the GI50 is 7.8 µM with MDA-MB-435, 12.8 µM with DU-145 prostate, 12.9 µM with BT-549 breast and 19.1 µM with HS 578T breast. Also, the TGI in the assay with MDA-MB-435 is 20.1 µM; in the assay with DU-145 prostate, 27.8 µM; in the assay on BT-549 breast, 28.7 µM; with HS 578T breast it was 45.2 µM.

Take `O=C(N/N=C/c1cccc(O)c1O)c1ccccc1`: the GI50 in the assay on MDA-MB-435 was 1.88 µM; in the assay with DU-145 prostate, 1.15 µM; in the assay on BT-549 breast, 1.84 µM; in the assay on HS 578T breast, 10.5 µM. In addition, the TGI in the assay on MDA-MB-435 is greater than 100 µM; with DU-145 prostate, greater than 100 µM; in the assay with BT-549 breast, greater than 73 µM; with HS 578T breast, greater than 100 µM.

`NCCCC[C@@H]1NC(=O)[C@H]2CCCN2C(=O)[C@H](Cc2ccccc2)NC(=O)[C@H](Cc2ccccc2)CNC1=O`: the GI50 in the assay with MDA-MB-435, with DU-145 prostate, with BT-549 breast and in the assay on HS 578T breast was greater than 100 µM in each case. In addition, the TGI with MDA-MB-435, in the assay with DU-145 prostate, in the assay with BT-549 breast and with HS 578T breast was greater than 100 µM throughout.

Take `CC1CN1CC(O)C(O)CN1CC1C` (stereo unspecified): the GI50 in the assay with MDA-MB-435 was 4.93 µM; in the assay with DU-145 prostate, 0.48 µM; with BT-549 breast it was 6.43 µM; with HS 578T breast, 11.3 µM. Further, the TGI in the assay on MDA-MB-435 stood at 24.8 µM; in the assay with DU-145 prostate it was 9.28 µM; with BT-549 breast, 87.1 µM; in the assay with HS 578T breast it was 57.4 µM.

As for `CCOC(=O)c1cc(/C(=N\O)c2cc(OC)c(OC)c(OC)c2)n2cc(C)cc(C)c12`, the GI50 in the assay with MDA-MB-435 is 0.565 µM; in the assay on DU-145 prostate, 3.67 µM; with BT-549 breast, 4.39 µM; with HS 578T breast, 2.7 µM. The TGI with MDA-MB-435 was 4.16 µM; in the assay on DU-145 prostate it was greater than 100 µM; in the assay on BT-549 breast, greater than 100 µM; with HS 578T breast it was greater than 100 µM.

`CN(C)c1ccc(N)cc1`: the GI50 in the assay with MDA-MB-435 was 3.4 µM; in the assay on DU-145 prostate it was 6.05 µM; in the assay with BT-549 breast it was 4.7 µM. Moreover, the TGI with MDA-MB-435 turned out to be 15.2 µM; in the assay with DU-145 prostate it was 48.1 µM; in the assay on BT-549 breast, 16.1 µM.
